Laboratory results taken from patent publication US4742059A, “Substituted quinoxalinediones and their methods of use” (American Cyanamide Company, priority 1987, dated 1988).
Read-outs that look alike come from different tables or passages of the source.

Tests used:
[1] = target: T1, Neutrophil Lipoxygenase (Cavia porcellus, UniProt A0A286X958); assay: Inhibition of neutrophil lipoxygenase (release and biosynthesis of LTB4 and 5-HETE) in guinea pig neutrophils; assay type: cell-based; details: 10 μg/ml compound, 100 μM arachidonic acid and 20 μM calcium ionophore (A23187), the lower the percentage, the more active
T1 construct: peritoneal neutrophils derived from guinea pigs; endogenous in cells; host or cells: guinea pig peritoneal neutrophils
T1 sequence (A0A286X958 1-674): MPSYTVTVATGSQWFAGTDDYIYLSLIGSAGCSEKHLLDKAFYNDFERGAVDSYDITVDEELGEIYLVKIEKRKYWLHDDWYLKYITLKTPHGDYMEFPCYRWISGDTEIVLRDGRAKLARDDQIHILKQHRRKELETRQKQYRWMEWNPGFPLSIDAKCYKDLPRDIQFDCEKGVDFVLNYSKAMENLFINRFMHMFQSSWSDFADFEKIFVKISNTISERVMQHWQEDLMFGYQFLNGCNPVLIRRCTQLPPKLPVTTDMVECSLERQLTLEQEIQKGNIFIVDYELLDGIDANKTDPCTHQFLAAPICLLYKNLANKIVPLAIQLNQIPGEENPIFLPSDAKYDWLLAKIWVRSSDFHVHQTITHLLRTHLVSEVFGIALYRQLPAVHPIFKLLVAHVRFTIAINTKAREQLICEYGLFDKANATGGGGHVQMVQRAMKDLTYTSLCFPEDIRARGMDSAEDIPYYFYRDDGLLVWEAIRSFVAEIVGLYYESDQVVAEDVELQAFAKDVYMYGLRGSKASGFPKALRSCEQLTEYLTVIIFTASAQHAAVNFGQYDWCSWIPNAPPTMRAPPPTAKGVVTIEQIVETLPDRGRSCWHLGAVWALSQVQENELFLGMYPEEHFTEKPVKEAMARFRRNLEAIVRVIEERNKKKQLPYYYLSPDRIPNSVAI
Method: The ability of these compounds to inhibit lipoxygenase activity in terms of the suppression of the release and biosynthesis of leukotriene B4 (LTB4) and 5-hydroxyeicosatetraenoic acid (5-HETE) was measured as follows.
In this assay 3×10^7 peritoneal neutrophils derived from guinea pigs were incubated at 37° C. in Dulbeccos buffer containing 50 mM tris buffer (pH 7.4). Five minutes before the addition of 100 μM arachidonic acid and 20 μM calcium ionophore (A23187), control vehicle or the test compounds were added to the neutrophils at a concentration of 10 μg/ml.
Three minutes after the addition of arachidonic acid and calcium ionophore the total lipid was partitioned into chloroform after adjusting the pH to 3 with citric acid and the addition of equal parts of methanol and chloroform.
The 5-HETE and LTB4 were resolved by HPLC using a 5M, 4×25 cm octadecyl silica column (IBM Instruments) with 70-80% methanol in water adjusted to pH 3.0 with acetic acid. As the mobile phase was pumped at 1.0 ml/minute, LTB4 and 5-HETE were detected by absorbance at 270 and 236 nm, respectively.
LTB4 and 5-HETE were quantitated by comparison with the control and the results were expressed as a percent of control.

[2] = tested on: immunologically stimulated human basophils; assay: Inhibition of histamine release from immunologically stimulated human basophils; assay type: cell-based; details: 1 h; human basophils challenged with anti-IgE or antigen; 60 minutes at 37° C.; active if ED50 ≤48 μM; read-out: ED50 (concentration which causes a 50% inhibition of histamine release)
Method: The novel compounds of this invention have been tested by the procedure of Lichtenstein, L. M. and Osler, A. G., J. Exp. Med., 120, 507-530 (1964), which evaluated the ability of compounds to inhibit mediator (histamine) release from immunologically stimulated human basophils.
Dissolve 140.3 g of sodium chloride, 7.45 g of potassium chloride and 74.5 g of Trizma-Tris Pre-Set, Reagent Grade, pH 7.6, at 25° C. (Sigma Chemical Co.) in sufficient water to give a final volume of 2 liters.
(Sigma Chemical Co.) (30 mg/ml)
Made to 0.75M and 0.5M respectively, with calcium chloride dihydrate and magnesium chloride hexahydrate.
A 10 ml portion of 10× Tris Buffer and 1.0 ml of human albumin are diluted to 100 ml with water.
A 10 ml portion of 10× Tris Buffer, 1.0 ml of human albumin, 0.8 ml of calcium stock and 0.2 ml of magnesium stock are diluted to 100 ml with water.
Behring Diagnostics (Generally used at […] final concentration).
Strength 1:100 (w:v) allergenic extract, Hollister-Stier Labs. Generally this is diluted 1:1000 to 1:10,000 (considering the vial as stock).
Intradermal solutions of intramuscular preparations for hyposensitization, Hollister-Stier Labs. The final concentration used is on the order of 1 PNU/ml.
Eighty milliliters of blood is withdrawn from subjects with known histamine release to anti-IgE, ragweed antigen or other specific allergen, using four 20 ml heparinized tubes. This 80 ml of blood is mixed with 20 ml of saline containing 0.6 g of dextrose and 1.2 g of dextran. The blood is allowed to sediment at room temperature in two 50 ml polycarbonate centrifuge tubes until a sharp interface develops between the red cells and plasma (60-90 minutes). The plasma (top) layer from each tube is withdrawn by pipet and transferred to respective 50 ml polycarbonate tubes. The plasma is centrifuged for 8 minutes at 110×G at 4° C. The supernatant is carefully poured off as completely as possible and the cell button is resuspended in 2-3 ml of Tris-A buffer using a silconized Pasteur pipet. The resuspension is accomplished by drawing the liquid gently in an out of the pipet, with the tip below the liquid, until and even suspension of cells is obtained. Sufficient Tris-A buffer is then added to bring the volume in the tube to about 45 ml and the tube is centrifuged at 110×G for 8 minutes at 4° C. The supernatant is poured off and the cell button is resuspended and centrifuged as described above. The supernatant is poured off and the cell button suspended in 2-3 ml of Tris-ACM buffer to make the final volume sufficient to allow addition to the reaction tubes.
Reaction tubes containing anti-IgE or antigens, either alone or with test compound in a total volume of 0.2 ml are prepared and placed in a 37° C. bath. The cells are warmed to 37° C. and frequently swirled to ensure and even suspension, while 1.0 ml aliquots are added to each reaction tube. The tubes are then incubated for 60 minutes at 37° C., vortexing the tubes gently every 15 minutes to keep the cells evenly suspended. When the reaction is complete, the tubes are centrifuged at 4° C. for 10 minutes at 1500 rpm to sediment the cells. One ml aliquots of supernatant are transferred to 12 mm by 75 mm polyethylene tubes and 0.2 ml of 8% perchloric acid is added to each tube. Blanks and totals are included in each test. The blanks have cells and all reagents except antigent or anti-IgE. The totals contain 0.24 ml of 8% perchloric acid, one ml of cells and 0.2 ml of buffer. […]

[3] = 5-HETE, read-out: 5-HETE, % of Control
[4] = LTB4, read-out: LTB4, % of Control

Structure (SMILES) | remaining activity at 10 µg/mL [1, 3] [%] | remaining activity at 10 µg/mL [1, 4] [%] | IC50 [2] [µM]
O=C1C(N2CCN(c3cccc(C(F)(F)F)c3)CC2)=CC(=O)c2ncccc21 [6-[4-[3-(Trifluromethyl)phenyl]-1-piperazinyl]-5,8-quinolinediones] | 11.9 | 5.7 | 
CCOC(=O)N1CCN(C2=CC(=O)c3ncccc3C2=O)CC1 [4-(5,8-Dihydro-5,8-dioxo-6-quinolyl)-1-piperazinecarboxylic acid ethyl ester] |  |  | 17.4
O=C1C=C(N2CCN(c3nc4ccccc4s3)CC2)C(=O)c2nccnc21 [6-[4-(2-Benzothiazoyl)-1-piperazinyl]-5,8-quinoxalinedione] | 67.2 | 8 | 1.2
CCOC(=O)N1CCN(C2=CC(=O)c3nccnc3C2=O)CC1 [4-(5,8-dihydro-5,8-dioxo-6-quinoxalinyl)-1-piperazine carboxylic acid ethyl ester] |  |  | 3.7
O=C1C(N2CCN(c3nc4ccccc4o3)CC2)=CC(=O)c2ncccc21 [6-[4-(2-Benzoxazolyl)-1-piperazinyl]-5,8-quinolinedione] | 36.9 | 8 | 
O=C1C=C(N2CCN(c3nc4ccccc4o3)CC2)C(=O)c2ncccc21 [7-[4-(2-Benzoxazolyl)-1-piperazinyl]-5,8-quinolinedione] | 22.7 | 35.8 | 
O=C1C=C(N2CCN(Cc3ccccc3)CC2)C(=O)c2nccnc21 [6[4-(Phenylmethyl)-1-piperazinyl]-5,8-quinoxalinedione] | 53.9 | 8 | 
O=C1C=C(N2CCN(c3cccc(C(F)(F)F)c3)CC2)C(=O)c2nccnc21 [6-[4-[3-(Trifluoromethyl)phenyl]-1-piperazinyl]-5,8-quinoxalinedione] | 1.6 | 0 | 6.6
O=C1C(N2CCN(Cc3ccccc3)CC2)=CC(=O)c2ncccc21 [6-[4-(Phenylmethyl)-1-piperazinyl]-5,8-quinolinedione] |  |  | 12.1
